Values belong to the molecule of their own block, whether it stands above or below them.
Columns and labels:
[1] = Emulsion stability testing of nonionic emulsifiers, aromatic solvent series; format: physicochemical; set-up: key to 24 h separation, appearance / 1 h separation, appearance / 1 h separation, amount: C = creamy; CO = creamy oil; O = oil; GC = gritty cream; NS = no separation; OC = oily cream; key to Spon. (spontaneity): G = good; F = fair; P = poor
Procedure: (§1) Nonionic samples contain a low amount of water (<1%) and are prepared as emulsifiable concentrates with three pesticides using two different solvent systems. In the aromatic solvent series, the nonionic sample replaces Toximul® 8240 (castor oil ethoxylate, 36 POE, Stepan), and in the Hallcomid™ (N,N-dimethylcaprylamide/N,N-dimethylcapramide, Stepan) solvent series, the nonionic sample replaces Ninex® MT-630F.
Sample preparation: Ninate® 60E (calcium alkylbenzenesulfonate, Stepan) and the test sample are stirred until homogeneous. […] Controls 1-3 are made by using Toximul 8240 in the amounts indicated instead of the nonionic sample.
Formulations: • 1. Bifenthrin, 240 g/L (2.99 g), Aromatic 100 (ExxonMobil, 8.05 g), Ninate 60E (0.38 g), and nonionic sample or Toximul 8240 (0.58 g). • 2. 2,4-D ester, 480 g/L (8.90 g), Exxsol® D-110 (ExxonMobil, 2.50 g), Ninate 60E (0.36 g), and nonionic sample or Toximul 8240 (0.24 g). • 3. Tebuconazole, 360 g/L (4.45 g), N-methyl-2-pyrrolidone (6.35 g), Ninate 60E (0.48 g), nonionic sample or Toximul 8240 (0.72 g).
(§2) Emulsion Stability Testing
(§3) A Mohr pipette is used to feed pesticide/surfactant concentrates to each cylinder.

[2] = Emulsion stability testing of nonionic emulsifiers, Hallcomid solvent series; format: physicochemical; set-up: key to 24 h separation, appearance / 1 h separation, appearance / 1 h separation, amount: C = creamy; CO = creamy oil; O = oil; GC = gritty cream; NS = no separation; OC = oily cream; key to Spon. (spontaneity): G = good; F = fair; P = poor
Procedure: as §1
(§4) Hallcomid Solvent Series.
(§5) Sample preparation: The surfactants are combined and stirred until homogeneous, with the nonionic sample melted if needed prior to combination. Controls 1-3 are made by using Ninex MT-630F in the amounts indicated instead of the nonionic sample.
as §2, §3

[3] = Surfactant phase behavior study (cross-polarized microscopy); format: physicochemical; conditions: room temperature
Procedure: Phase behavior is observed using an Olympus BH-2 cross-polarized microscope at 100-400× and room temperature (20° C. to 22° C.). The inventive monounsaturated alcohol ethoxylates are compared with their saturated analogs.
Samples are prepared by diluting the most concentrated product gradually with deionized water. When the surfactant concentration approaches a phase transition, the concentration is varied at 2-4% intervals to estimate the phase boundary. The actives level reported in Table 4 for each phase boundary is within ±5% of the true boundary.
Samples are loaded between a microscope slide and cover glass and are allowed to equilibrate before observation. Microscopic texture is analyzed and used to determine the phase. For some samples, an AR 2000 rheometer (TA Instruments) is used to measure viscosity at 25° C. to further verify phase behavior.

[4] = Emulsion stability testing of nonionic emulsifiers, Hallcomid solvent series; format: physicochemical; set-up: key: C = creamy; CO = creamy oil; O = oil; GC = gritty cream; NS = no separation; OC = oily cream
Procedure: as §1, §4, §5, §2, §3

[5] = 0.4 wt. % active, 342 ppm hard water
Procedure: Surfactant solution (100 mL) is carefully transferred to a stainless-steel mixing cup, then mixed at high speed (27K rpm) using a Hamilton Beach mixer for 10 s. The contents are quickly poured into a 100-mL graduated cylinder to the 100-mL mark, and a stopwatch is immediately started. The amount of liquid settling in the cylinder is recorded every 15 s for 4 min. Less liquid drained indicates greater foam stability.

[6] = 2,4-D ester 480 g/L in Exxsol D-110, 34 ppm water
[7] = 2,4-D ester 480 g/L in Exxsol D-110, 1000 ppm water
[8] = Bifenthrin 240 g/L in Aromatic 100, 34 ppm water
[9] = Bifenthrin 240 g/L in Aromatic 100, 1000 ppm water
[10] = Tebuconazole 360 g/L in N-methyl-2-pyrrolidone, 34 ppm water
[11] = Tebuconazole 360 g/L in N-methyl-2-pyrrolidone, 1000 ppm water
[12] = 2,4-D diester 480 g/L in Hallcomid M-8-10, 34 ppm water
[13] = 2,4-D diester 480 g/L in Hallcomid M-8-10, 1000 ppm water
[14] = Bifenthrin 240 g/L in Hallcomid M-8-10, 34 ppm water
[15] = Bifenthrin 240 g/L in Hallcomid M-8-10, 1000 ppm water
[16] = Tebuconazole 360 g/L in Hallcomid M-8-10, 34 ppm water
[17] = Tebuconazole 360 g/L in Hallcomid M-8-10, 1000 ppm water

1 h separation, amount [1, 6]: 2.6 mL | 1 h separation, appearance [1, 6]: C | 24 h separation, amount [1, 6]: 5 mL | 24 h separation, appearance [1, 6]: C | Spon. (spontaneity) [1, 6]: P | 1 h separation, amount [1, 7]: 2.8 mL | 1 h separation, appearance [1, 7]: C | 24 h separation, amount [1, 7]: 3.9 mL | 24 h separation, appearance [1, 7]: C | Spon. (spontaneity) [1, 7]: P | 1 h separation, amount [1, 8]: 7 mL | 1 h separation, appearance [1, 8]: C | 24 h separation, amount [1, 8]: 7 mL | 24 h separation, appearance [1, 8]: C | Spon. (spontaneity) [1, 8]: P | 1 h separation, amount [1, 9]: 6 mL | 1 h separation, appearance [1, 9]: C | 24 h separation, amount [1, 9]: 4.8 mL | 24 h separation, appearance [1, 9]: CO | Spon. (spontaneity) [1, 9]: P | 1 h separation, amount [1, 10]: 1 mL | 1 h separation, appearance [1, 10]: C | 24 h separation, amount [1, 10]: 3.5 mL | 24 h separation, appearance [1, 10]: CO | Spon. (spontaneity) [1, 10]: P | 1 h separation, amount [1, 11]: 1.2 mL | 1 h separation, appearance [1, 11]: C | 24 h separation, amount [1, 11]: 2 mL | 24 h separation, appearance [1, 11]: CO | Spon. (spontaneity) [1, 11]: P | 1 h separation, amount [2, 12]: 4.4 mL | 1 h separation, appearance [2, 12]: C | 24 h separation, amount [2, 12]: 8.5 mL | 24 h separation, appearance [2, 12]: C | Spon. (spontaneity) [2, 12]: P | 1 h separation, amount [2, 13]: 4.8 mL | 1 h separation, appearance [2, 13]: C | 24 h separation, amount [2, 13]: 7.6 mL | 24 h separation, appearance [2, 13]: C | Spon. (spontaneity) [2, 13]: P | 1 h separation, amount [2, 14]: NS | Spon. (spontaneity) [2, 14]: G | 1 h separation, amount [2, 15]: 5.5 mL | 1 h separation, appearance [2, 15]: CO | 24 h separation, amount [2, 15]: 5.4 mL | 24 h separation, appearance [2, 15]: O | Spon. (spontaneity) [2, 15]: F | 1 h separation, amount [2, 16]: 1 mL | 1 h separation, appearance [2, 16]: C | Spon. (spontaneity) [2, 16]: F | 1 h separation, amount [2, 17]: 2 mL | 1 h separation, appearance [2, 17]: C | 24 h separation, amount [2, 17]: 4.7 mL | 24 h separation, appearance [2, 17]: C | Spon. (spontaneity) [2, 17]: F | Paste phase region ([3]; in deionized water): 93-100 % Actives Level | 24 h separation, amount [4, 14]: NS | 24 h separation, amount [4, 16]: NS
SMILES: C=CCCCCCCCCOCCOCCOCCOCCOCCOCCOCCOCCOCCOCCOCCOCCOCCOCCOCCO [A10-16]

1 h separation, amount [1, 6]: 3.2 mL | 1 h separation, appearance [1, 6]: C | 24 h separation, amount [1, 6]: 5.5 mL | 24 h separation, appearance [1, 6]: C | Spon. (spontaneity) [1, 6]: P | 1 h separation, amount [1, 7]: 4.2 mL | 1 h separation, appearance [1, 7]: O | 24 h separation, amount [1, 7]: 0.8 O, 3.3 CO | Spon. (spontaneity) [1, 7]: P | 1 h separation, amount [1, 8]: 8.8 mL | 1 h separation, appearance [1, 8]: C | 24 h separation, amount [1, 8]: 6.8 mL | 24 h separation, appearance [1, 8]: C | Spon. (spontaneity) [1, 8]: P | 1 h separation, amount [1, 9]: 4.5 mL | 1 h separation, appearance [1, 9]: O | 24 h separation, amount [1, 9]: 4.9 mL | 24 h separation, appearance [1, 9]: O | Spon. (spontaneity) [1, 9]: P | 1 h separation, amount [1, 10]: 2.3 mL | 1 h separation, appearance [1, 10]: C | 24 h separation, amount [1, 10]: 3 mL | 24 h separation, appearance [1, 10]: GC | Spon. (spontaneity) [1, 10]: P | 1 h separation, amount [1, 11]: 2.6 mL | 1 h separation, appearance [1, 11]: C | 24 h separation, amount [1, 11]: 3.2 mL | 24 h separation, appearance [1, 11]: GC | Spon. (spontaneity) [1, 11]: P | 1 h separation, amount [2, 12]: 6 mL | 1 h separation, appearance [2, 12]: C | 24 h separation, amount [2, 12]: 10 mL | 24 h separation, appearance [2, 12]: C | Spon. (spontaneity) [2, 12]: F | 1 h separation, amount [2, 13]: 6.7 mL | 1 h separation, appearance [2, 13]: C | 24 h separation, amount [2, 13]: 8.2 mL | 24 h separation, appearance [2, 13]: C | Spon. (spontaneity) [2, 13]: F | 1 h separation, amount [2, 14]: NS | Spon. (spontaneity) [2, 14]: G | 1 h separation, amount [2, 15]: 10.2 mL | 1 h separation, appearance [2, 15]: C | 24 h separation, amount [2, 15]: 2 O, 3.5 CO | Spon. (spontaneity) [2, 15]: F | 1 h separation, amount [2, 16]: 2 mL | 1 h separation, appearance [2, 16]: C | 24 h separation, amount [2, 16]: 5.1 mL | 24 h separation, appearance [2, 16]: C | Spon. (spontaneity) [2, 16]: F | 1 h separation, amount [2, 17]: 2.7 mL | 1 h separation, appearance [2, 17]: C | 24 h separation, amount [2, 17]: 4.9 mL | 24 h separation, appearance [2, 17]: C | Spon. (spontaneity) [2, 17]: F | combined isotropic phases (clear and opaque), share of the total [3]: about 66% | Isotropic Clear phase region ([3]; in deionized water): 74-100 % Actives Level | Isotropic Opaque phase region ([3]; in deionized water): 0-40 % Actives Level | Lamellar phase region ([3]; in deionized water): 40-74 % Actives Level | 24 h separation, amount [4, 14]: NS
SMILES: CCC=CCCCCCCCCOCCOCCOCCO (mixture of isomers) [A12-7]

1 h separation, amount [1, 6]: 2.8 mL | 1 h separation, appearance [1, 6]: C | 24 h separation, amount [1, 6]: 4.6 mL | 24 h separation, appearance [1, 6]: C | Spon. (spontaneity) [1, 6]: G | 1 h separation, amount [1, 7]: 3.9 mL | 1 h separation, appearance [1, 7]: CO | 24 h separation, amount [1, 7]: 1 O, 4 CO | Spon. (spontaneity) [1, 7]: F | 1 h separation, amount [1, 8]: 3 mL | 1 h separation, appearance [1, 8]: C | 24 h separation, amount [1, 8]: 5.8 mL | 24 h separation, appearance [1, 8]: C | Spon. (spontaneity) [1, 8]: F | 1 h separation, amount [1, 9]: NS | 24 h separation, amount [1, 9]: 2.6 mL | 24 h separation, appearance [1, 9]: O | Spon. (spontaneity) [1, 9]: G | 1 h separation, amount [1, 10]: 1.5 CO, 0.5 C | 24 h separation, amount [1, 10]: 2.8 mL | 24 h separation, appearance [1, 10]: CO | Spon. (spontaneity) [1, 10]: P | 1 h separation, amount [1, 11]: 2.1 mL | 1 h separation, appearance [1, 11]: CO | 24 h separation, amount [1, 11]: 3.5 mL | 24 h separation, appearance [1, 11]: CO | Spon. (spontaneity) [1, 11]: P | 1 h separation, amount [2, 12]: 4.5 mL | 1 h separation, appearance [2, 12]: C | 24 h separation, amount [2, 12]: 8.2 mL | 24 h separation, appearance [2, 12]: C | Spon. (spontaneity) [2, 12]: P | 1 h separation, amount [2, 13]: 5 mL | 1 h separation, appearance [2, 13]: C | 24 h separation, amount [2, 13]: 7.8 mL | 24 h separation, appearance [2, 13]: C | Spon. (spontaneity) [2, 13]: F | 1 h separation, amount [2, 14]: NS | Spon. (spontaneity) [2, 14]: G | 1 h separation, amount [2, 15]: 6.4 mL | 1 h separation, appearance [2, 15]: CO | 24 h separation, amount [2, 15]: 6 mL | 24 h separation, appearance [2, 15]: O | Spon. (spontaneity) [2, 15]: F | 1 h separation, amount [2, 16]: 2.1 mL | 1 h separation, appearance [2, 16]: C | 24 h separation, amount [2, 16]: 4.9 mL | 24 h separation, appearance [2, 16]: C | Spon. (spontaneity) [2, 16]: F | 1 h separation, amount [2, 17]: 3 mL | 1 h separation, appearance [2, 17]: C | 24 h separation, amount [2, 17]: 5.5 mL | 24 h separation, appearance [2, 17]: C | Spon. (spontaneity) [2, 17]: F | Isotropic Clear phase region ([3]; in deionized water): 0-100 % Actives Level | Liquid volume at drain time 0.5 min [5]: 0.50 mL | Liquid volume at drain time 1.0 min [5]: 2.25 mL | Liquid volume at drain time 1.5 min [5]: 4.00 mL | Liquid volume at drain time 2.0 min [5]: 6.00 mL | Liquid volume at drain time 2.5 min [5]: 7.50 mL | Liquid volume at drain time 3.0 min [5]: 9.50 mL | Liquid volume at drain time 3.5 min [5]: 11.50 mL | Liquid volume at drain time 4.0 min [5]: 13.25 mL | 24 h separation, amount [4, 14]: NS
SMILES: C=CCCCCCCCCOCCOCCOCCOCCOCCOCCOCCO [A10-13]
